Results on one compound are retold here after patent US5276048A, “4-(1H-pyrrol-1-yl)imidazoles with angiotensin II antagonist activity” (Warner-Lambert Company, priority 1992, dated 1994).

Bounds are passed on as bounds.

The subject of this test is renal hypertensive rats (2-kidney, 1-clip Goldblatt model). The test is described as follows: blood pressure lowering in renal hypertensive rats (2-kidney, 1-clip Goldblatt model). The following applies: single oral dose of 30 mg/kg. The format is in vivo, rat. As to the method: Finally, the compounds of Formula I were tested in vivo for blood pressure lowering effects in renal hypertensive rats (2-kidney, 1-clip Goldblatt model) according to the method described by S. Sen, et al, in Hypertension 1:427-434 (1979) and in Clin. Soc. 57:53-6, 1979.
Illustrative of the in vivo antihypertensive activity for compounds of Formula I is the data for 4-[2-(1-oxo-2,2,2-trifluoroethyl)-1H-pyrrol-1-yl]-2-propyl-1-[(2'-(1H-tetrazol-5-yl)biphen-4-yl)methyl]-1H-imidazole-5-carboxylic acid (Example 14). This compound lowers blood pressure by ≥50 mm Hg and is efficacious for more than 24 hours with a single oral dose of 30 mg/kg in the above rodent model.

In the case of `CCCc1nc(-n2cccc2C(=O)C(F)(F)F)c(C(=O)O)n1Cc1ccc(-c2ccccc2-c2nnn[nH]2)cc1` [Example 14, 4-[2-(1-Oxo-2,2,2-trifluoroethyl)-1H-pyrrol-1-yl]-2-propyl-1-[(2'-(1H-tetrazol-5-yl)biphen-4-yl)methyl]-1H-imidazole-5-carboxylic acid], the duration of efficacy result was “more than 24 hours” and the lowers blood pressure was no less than 50 mm Hg.
